Measured values taken from ChEMBL document CHEMBL1201862, “PubChem BioAssay data set” (2004).
Each block holds one compound with its values, some of them ahead of it. Activity calls are given as the source filed them.

What was measured:
[1] = Luminescence Cell-Based Dose Retest to Confirm Inhibitors of Cancer Stem Cells. [Related pubchem assays (depositor defined):AID2717, AID2721]; format: functional; settings: Homo sapiens
Vero = assay: viability loss in Vero cells – cell-based, plate reader, cherry-pick samples, cytotoxicity control, dose response (AID 687020); format: functional; settings: Chlorocebus sabaeus
BHK-21 = assay: viability loss in BHK-21 cells – cell-based, plate reader, cherry-pick samples, cytotoxicity control, dose response (AID 687030); format: functional; settings: Mesocricetus auratus
A549 = assay: viability loss in A549 cells – cell-based, plate reader, cherry-pick samples, cytotoxicity control, dose response (AID 687028); format: functional; settings: Homo sapiens
[2] = viability loss in HepG2 hepatoma cells – cell-based, ATP luminescence, cherry-pick, activator set 2, cytotoxicity control, dose response (AID 1053143); format: functional
[3] = tested on: Streptococcus sp. 'group A'; assay: Streptococcus pyogenes SK(-)GAS viability under kanamycin – luminescence, BacTiterGlo, confirmation, counter-screen for streptokinase expression inhibitor project, dose response (AID 1900); format: functional, organism-based
[4] = biological target: Induced myeloid leukemia cell differentiation protein Mcl-1 (Homo sapiens, UniProt Q07820); format: functional
Induced myeloid leukemia cell differentiation protein Mcl-1, sequence (Q07820 whole entry): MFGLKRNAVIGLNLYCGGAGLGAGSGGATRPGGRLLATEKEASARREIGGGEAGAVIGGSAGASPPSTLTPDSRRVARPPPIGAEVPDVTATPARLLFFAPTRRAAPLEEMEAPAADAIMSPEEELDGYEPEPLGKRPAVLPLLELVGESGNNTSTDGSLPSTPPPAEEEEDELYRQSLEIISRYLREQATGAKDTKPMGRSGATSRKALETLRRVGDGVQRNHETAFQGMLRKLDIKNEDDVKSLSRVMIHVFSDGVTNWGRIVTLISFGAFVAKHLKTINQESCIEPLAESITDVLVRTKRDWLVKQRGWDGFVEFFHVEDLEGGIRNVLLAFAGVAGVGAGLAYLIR

Streptococcus = assay: GAS UMAA2166 growth inhibition – luminescence, BacTiterGlo, counter-screen for streptokinase expression inhibitor project, dose response (AID 1915); format: functional, organism-based;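 note: potency for reduction of bacterial viability or growth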
[5] = HGIII-sPLA2 enzyme inhibition potency – biochemical, QFRET, IC50, dose response (AID 743457);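 note: green fluorescence rise as the enzyme cleaves BODIPY PC-A2 in liposomes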
[6] = biological target: NAD-dependent protein deacylase sirtuin-5, mitochondrial (Homo sapiens, UniProt Q9NXA8); assay: sirtuin-5 deacylation blockers, concentration series – biochemical, fluorescence imaging, cherry-pick, set 5, dose response (AID 720591);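 note: desuccinylation of succinyl peptide AMC substrate read as fluorescence after trypsin release; potency of inhibitors that lower fluorescence and may act on trypsin instead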
NAD-dependent protein deacylase sirtuin-5, mitochondrial, sequence (Q9NXA8 whole entry): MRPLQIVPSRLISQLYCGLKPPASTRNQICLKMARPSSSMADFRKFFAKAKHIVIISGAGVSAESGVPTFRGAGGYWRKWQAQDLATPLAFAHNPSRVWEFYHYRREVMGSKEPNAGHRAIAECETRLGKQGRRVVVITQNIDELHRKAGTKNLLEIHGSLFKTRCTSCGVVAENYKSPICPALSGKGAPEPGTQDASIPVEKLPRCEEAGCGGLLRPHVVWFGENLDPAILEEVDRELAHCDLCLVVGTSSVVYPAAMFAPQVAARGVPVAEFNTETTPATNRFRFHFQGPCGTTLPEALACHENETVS

Paired box protein Pax-8 = Paired box protein Pax-8 (Homo sapiens, UniProt Q06710); assay: PAX8 transcriptional activity inhibition in RMG-I – RMG-I cells, luciferase, cherry-pick, dose response (AID 687027); format: functional, cell-based;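 note: luciferase reporter driven by Pax8 target thyroperoxidase promoter measured by SteadyGlo luminescence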
Paired box protein Pax-8, sequence (Q06710 whole entry): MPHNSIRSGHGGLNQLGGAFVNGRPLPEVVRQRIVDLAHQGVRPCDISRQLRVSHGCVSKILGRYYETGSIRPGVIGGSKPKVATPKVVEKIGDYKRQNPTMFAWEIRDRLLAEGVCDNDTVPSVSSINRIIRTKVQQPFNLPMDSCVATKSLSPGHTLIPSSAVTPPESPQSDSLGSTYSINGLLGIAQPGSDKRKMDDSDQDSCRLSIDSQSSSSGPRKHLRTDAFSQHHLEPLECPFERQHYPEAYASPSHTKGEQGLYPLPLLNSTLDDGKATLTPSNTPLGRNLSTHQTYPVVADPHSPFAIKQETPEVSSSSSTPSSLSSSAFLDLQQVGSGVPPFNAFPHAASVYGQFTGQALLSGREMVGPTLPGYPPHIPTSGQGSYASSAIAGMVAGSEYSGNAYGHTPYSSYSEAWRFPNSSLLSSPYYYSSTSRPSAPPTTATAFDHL

[7] = general cell-killing toxicity readout – plate reader, dry powder samples, cytotoxicity control for PAX8 inhibitor project, dose response (AID 743021); format: functional, cell-based
[8] = biological target: Potassium channel subfamily K member 9 (Homo sapiens, UniProt Q9NPC2); assay: KCNK9 flux blockade, concentration-response – cell-based, FluxOR thallium flux, selectivity assay for TASK1 inhibitor project, SAR follow-up (AID 652211); format: functional;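 note: potency is for inhibitors of the channel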
Potassium channel subfamily K member 9, sequence (Q9NPC2 whole entry, the tested form may be a part): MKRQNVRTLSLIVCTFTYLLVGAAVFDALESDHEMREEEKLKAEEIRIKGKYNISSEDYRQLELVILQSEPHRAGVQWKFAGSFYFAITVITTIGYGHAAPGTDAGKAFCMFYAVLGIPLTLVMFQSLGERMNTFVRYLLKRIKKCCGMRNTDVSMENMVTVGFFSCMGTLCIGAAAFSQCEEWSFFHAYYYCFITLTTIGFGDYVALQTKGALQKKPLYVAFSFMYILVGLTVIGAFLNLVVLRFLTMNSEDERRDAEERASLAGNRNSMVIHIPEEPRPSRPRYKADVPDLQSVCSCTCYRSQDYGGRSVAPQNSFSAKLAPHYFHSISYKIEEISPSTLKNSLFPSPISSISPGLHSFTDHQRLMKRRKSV

[9] = biological target: Potassium channel subfamily K member 3 (Rattus norvegicus, UniProt O54912); assay: SAR analysis for the identification of selective inhibitors of the two-pore domain potassium channel TASK1(KCNK3):Automated Electrophysiology.; format: functional
Potassium channel subfamily K member 3, sequence (O54912 whole entry, the tested form may be a part): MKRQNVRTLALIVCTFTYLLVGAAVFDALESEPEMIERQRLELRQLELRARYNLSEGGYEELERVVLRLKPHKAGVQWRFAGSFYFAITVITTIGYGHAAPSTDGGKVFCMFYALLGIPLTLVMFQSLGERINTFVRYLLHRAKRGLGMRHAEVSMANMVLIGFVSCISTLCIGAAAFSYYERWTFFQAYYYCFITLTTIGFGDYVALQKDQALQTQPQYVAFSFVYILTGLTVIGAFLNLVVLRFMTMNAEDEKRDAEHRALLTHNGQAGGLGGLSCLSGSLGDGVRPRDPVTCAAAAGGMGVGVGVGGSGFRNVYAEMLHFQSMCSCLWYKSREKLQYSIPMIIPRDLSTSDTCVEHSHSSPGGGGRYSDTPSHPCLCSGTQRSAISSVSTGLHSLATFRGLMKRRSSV

[10] = viability loss in HepG2 hepatoma cells – cell-based, cherry-picks, set 5, cytotoxicity control, dose response (AID 1053118); format: functional
[11] = viability loss in HEK293 kidney cells – cell-based, cherry-picks, set 5, cytotoxicity control, dose response (AID 1053117); format: functional
[12] = viability loss in A549 lung cancer cells – cell-based, cherry-picks, […], cytotoxicity control, dose response (AID 1053119); format: functional
[13] = growth inhibition of yeast DHODH-expressing 3D7 parasites – SYBR Green, dry powder samples, dose response (AID 1159570); format: functional, cell-based;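 note: parasite growth measured after 72 hours of compound exposure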
[14] = toxicity to human HepG2 hepatoma cells – cell-based, plate reader, dry powder samples, cytotoxicity control, dose response (AID 1159569); format: functional;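 note: inhibitor potency with signal falling toward the positive control level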
[15] = P. falciparum Dd2 growth inhibitors, dose response, SYBR Green, cherry-picked samples (AID 1159567); format: functional, cell-based
[16] = Dd2 malaria parasite growth inhibition potency – SYBR Green, dry powder samples, dose response (AID 1159566); format: functional, cell-based;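 note: potency for growth inhibition with lower SYBR green DNA signal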
[17] = growth inhibition of PfATP4-mutant resistant parasites – NITD609-resistant line, SYBR Green, dry powder, dose response (AID 1159571); format: functional, cell-based;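 note: parasites synchronized at ring stage by sorbitol before testing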
[18] = HEK293T viability loss – cell-based, ATP luminescence, dry powder, Set6, cytotoxicity control, dose response (AID 743142); format: functional; settings: HEK293
[19] = viability loss in A549 lung cancer cells – cell-based, CellTiter-Glo luminescence, dry powder, set 3, cytotoxicity control, dose response (AID 743146); format: functional
[20] = biological target: T1, High affinity choline transporter 1 (Homo sapiens, UniProt Q9GZV3); assay: inhibition of SLC5A7-mediated choline transport – cell-based, HEK-293 hCHT, [3H]-choline uptake, dose response (AID 652177); format: functional
T1 sequence (Q9GZV3 whole entry): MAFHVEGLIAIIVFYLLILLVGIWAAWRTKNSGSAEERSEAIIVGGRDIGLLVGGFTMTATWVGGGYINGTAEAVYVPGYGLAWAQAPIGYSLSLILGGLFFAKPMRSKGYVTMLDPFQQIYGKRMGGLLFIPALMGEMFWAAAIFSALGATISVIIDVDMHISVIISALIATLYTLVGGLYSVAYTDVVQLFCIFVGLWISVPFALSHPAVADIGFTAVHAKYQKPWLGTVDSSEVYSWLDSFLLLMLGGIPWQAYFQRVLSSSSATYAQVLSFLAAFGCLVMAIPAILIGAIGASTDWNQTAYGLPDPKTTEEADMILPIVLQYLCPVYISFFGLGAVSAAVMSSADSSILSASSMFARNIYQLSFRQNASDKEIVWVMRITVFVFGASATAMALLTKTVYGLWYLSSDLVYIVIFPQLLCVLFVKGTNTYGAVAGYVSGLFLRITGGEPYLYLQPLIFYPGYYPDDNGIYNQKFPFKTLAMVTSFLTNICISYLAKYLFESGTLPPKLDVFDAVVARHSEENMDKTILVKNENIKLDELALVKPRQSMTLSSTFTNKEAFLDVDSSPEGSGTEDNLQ

[21] = Counterscreen for […] of the human trace amine associated receptor 1 (TAAR1): Fluorescence-based cell-based high throughput dose response assay to identify nonselective Ga16 agonists.; format: functional
[22] = biological target: T2, Trace amine-associated receptor 1 (Homo sapiens, UniProt Q96RJ0); assay: Fluorescence-based cell-based high throughput dose response assay to identify antagonists of the human trace amine associated receptor 1 (TAAR1).; format: functional
T2 sequence (Q96RJ0 whole entry): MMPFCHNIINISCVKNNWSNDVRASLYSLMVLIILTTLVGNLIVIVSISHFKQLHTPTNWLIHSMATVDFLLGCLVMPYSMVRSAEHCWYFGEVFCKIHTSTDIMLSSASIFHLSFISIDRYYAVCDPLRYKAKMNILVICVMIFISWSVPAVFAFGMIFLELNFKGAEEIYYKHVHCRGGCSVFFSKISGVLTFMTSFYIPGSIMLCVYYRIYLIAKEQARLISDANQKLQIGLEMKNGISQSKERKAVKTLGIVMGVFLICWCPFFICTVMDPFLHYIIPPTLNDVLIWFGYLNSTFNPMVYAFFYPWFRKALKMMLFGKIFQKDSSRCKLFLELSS

[23] = Counterscreen for antagonists of the human trace amine associated receptor 1 (hTAAR1): Fluorescence-based cell-based high throughput dose response assay to identify nonselective Ga16 antagonists.; format: functional
[24] = biological target: T2, Trace amine-associated receptor 1; assay: Counterscreen for antagonists of the human trace amine associated receptor 1 (hTAAR1): Fluorescence-based cell-based high throughput dose response assay to identify TAAR1 Agonists.; format: functional
[25] = NIH-3T3 fibroblast cytotoxicity, dose response, cytotoxicity control, cell-based, fluorescence, Alamar Blue, secondary assay (AID 2327); format: functional;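 note: NIH-3T3 mouse fibroblasts cultured with fluconazole at 8 µg/mL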
[26] = fluconazole-exposed Candida albicans growth modulators – fluorescence, retest, confirmation (AID 2467); format: functional, cell-based
[27] = Trypanosoma cruzi growth suppression in host cells – NIH3T3 host cells, beta-gal luminescence, confirmation (AID 2044); format: functional, cell-based;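 note: intracellular parasites grown in NIH/3T3 mouse fibroblasts as host cells; luminescent beta-galactosidase reporter signal from transgenic T. cruzi replicating inside host cells; inhibitors lower the luminescence signal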
[28] = biological target: T3, Calpain-2 catalytic subunit (Sus scrofa, UniProt P43367); assay: m-calpain protease blockers, concentration series – biochemical, fluorogenic peptide substrate, dose response (AID 1420); format: functional
T3 sequence (P43367 whole entry): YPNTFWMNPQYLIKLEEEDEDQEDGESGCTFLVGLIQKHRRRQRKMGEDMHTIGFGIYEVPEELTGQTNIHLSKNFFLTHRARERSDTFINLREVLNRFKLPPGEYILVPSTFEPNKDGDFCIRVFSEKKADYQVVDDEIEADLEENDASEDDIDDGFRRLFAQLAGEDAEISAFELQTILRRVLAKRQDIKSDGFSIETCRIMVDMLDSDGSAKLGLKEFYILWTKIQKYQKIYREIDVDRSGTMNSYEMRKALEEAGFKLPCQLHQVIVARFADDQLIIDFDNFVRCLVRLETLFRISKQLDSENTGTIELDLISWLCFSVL

[29] = NIH3T3 cell viability loss – ATP luminescence, mouse fibroblasts, counter-screen, dose response (AID 2010); format: functional, cell-based;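 note: cells exposed to compound for about 90 hours before reading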
[30] = blockers of HIV-1 envelope-mediated cell-cell fusion – cherry-pick, dose response (AID 652057); format: functional, cell-based
Galanin receptor type 3 = biological target: T4, Galanin receptor type 3 (Homo sapiens, UniProt O60755); assay: Fluorescence-based cell-based primary high throughput dose response assay to identify antagonists of the Galanin Receptor 3 (GalR3).; format: functional
T4 sequence (O60755 whole entry): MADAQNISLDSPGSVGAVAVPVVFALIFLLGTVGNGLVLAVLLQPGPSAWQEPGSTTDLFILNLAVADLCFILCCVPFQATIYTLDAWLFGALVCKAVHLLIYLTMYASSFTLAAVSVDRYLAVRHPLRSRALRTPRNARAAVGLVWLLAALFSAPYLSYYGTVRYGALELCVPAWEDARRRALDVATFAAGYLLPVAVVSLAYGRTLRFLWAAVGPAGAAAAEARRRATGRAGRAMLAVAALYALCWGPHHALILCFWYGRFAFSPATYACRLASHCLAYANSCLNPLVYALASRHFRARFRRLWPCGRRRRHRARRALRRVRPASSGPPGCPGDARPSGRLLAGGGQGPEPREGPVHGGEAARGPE

cells [31] = format: functional, cell-based; settings: HEK-CNG
[32] = viability loss in CEM21 cells – cell-based, CellTiter-Glo luminescence, cherry-picked, cytotoxicity control for viral fusion inhibitor project, dose response (AID 652042); format: functional;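 note: potency for signal decrease meaning cytotoxicity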
[33] = blockers of HIV-1 ZM109 envelope-driven cell-cell fusion – HeLa effector, CEM target cells, luciferase, cherry-pick, dose response (AID 652058); format: functional, cell-based;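 note: luciferase signal from HIV-1 Env mediated cell-cell fusion of effector and target cells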
[34] = HIV-1 AD8 envelope cell-cell fusion blockers – cherry-pick, dose response (AID 652062); format: functional, cell-based;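 note: luciferase signal from cell-cell fusion driven by HIV-1 clade B AD8 Env; potency is for inhibitors of fusion seen as a drop in luminescence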
cells [35] = assay: cells

Compound: CC1CCCN(CCCOc2ccc(Br)cc2Cl)C1 (configuration not stated)
AC50 [1]: 8.98 µM (active)
AC50 (Vero): 25.2 µM (active)
AC50 (BHK-21): 38.8 µM (active)
AC50 (A549): 27.2 µM (active)

Compound: O=C(Nc1ccc(F)cc1)c1ccc2nsnc2c1
AC50 [2]: > 52 µM (inactive)

Compound: Cc1cccc(C(=O)NC(=S)NNC(=O)c2ccc(Cl)cc2)c1
EC50 [3]: 0.362 µM (active)
IC50 [4]: 25.8 µM (not active)
EC50 (Streptococcus): 1.09 µM (active)
IC50 [5]: 21.9 µM (inactive)

AC50 [6]: > 30 µM (inactive)
Compound: Cc1noc(C)c1NC(=O)N(C)C[C@@H]1Oc2cc(Br)ccc2S(=O)(=O)N([C@@H](C)CO)C[C@H]1C

Compound: COc1ccc(S(=O)(=O)Nc2ccc3c(c2)C(=O)N([C@@H](C)CO)C[C@@H](C)[C@H](CN(C)Cc2ccc(C(F)(F)F)cc2)OCCCC[C@H](C)O3)cc1
AC50 (Paired box protein Pax-8): 10.8 µM (active)
AC50 [7]: 45.4 µM (active)

IC50 [8]: 1.04 µM (active)
IC50 [9]: 0.01 µM (active)
Compound: CCOc1ccccc1C(=O)Nc1cccc(NC(=O)c2ccccc2C(F)(F)F)c1

Compound: CO[C@H]1CN(C)C(=O)c2cc(NC(=O)Nc3ccc(C(F)(F)F)cc3)ccc2OC[C@H](C)NC[C@H]1C
AC50 [10]: > 52 µM (inactive)
AC50 [11]: > 52 µM (inactive)
AC50 [12]: > 52 µM (inactive)
AC50 [13]: 1.37 µM (active)
AC50 [14]: 19.2 µM (active)
AC50 [15]: 2.49 µM (active)
AC50 [16]: 1.56 µM (active)
AC50 [17]: 2.76 µM (active)

Compound: O=C(CCNC(=O)c1ccc(OC(F)(F)F)cc1)N[C@@H]1CCCc2ccccc21
AC50 [18]: 6.21 µM (active)
AC50 [19]: 26 µM (active)

IC50 [20]: 4.6 µM (active)
Compound: COc1ccc(C(=O)NC(C)Cc2ccccn2)cc1OC1CCN(C(C)C)CC1 (configuration not stated)

Compound: NC(=O)COc1cccc(/C=N/NC(=O)c2ccc(-n3cccc3)cc2)c1
EC50 [21]: > 29.9 µM (inactive)
IC50 [22]: > 1.11 µM (active)
IC50 [23]: > 29.9 µM (inactive)
EC50 [24]: > 29.9 µM (inactive)

Compound: CCCCCCCn1c2c(c(=N)c3c1CCC3)CCCC2
EC50 [25]: > 160 µM (inactive)
EC50 [26]: 2.79 µM (active)
EC50 [27]: < 0.1 µM (active)
IC50 [28]: 16.7 µM (not active)
EC50 [29]: > 60 µM (not active)
AC50 [30]: 3.53 µM (active)
IC50 (Galanin receptor type 3): > 1.11 µM (active)
EC50 (cells [31]): 27.7 µM (inactive)
AC50 [32]: 6.62 µM (active)
AC50 [33]: 3.24 µM (active)
AC50 (Paired box protein Pax-8): 0.677 µM (active)
AC50 [34]: 2.6 µM (active)
EC50 (cells [35]): 0.006 µM (active)
